Experimental data: paper PMC5189922 (Journal of medicinal chemistry, 2016)
“Also recorded” adds a separate entry of the source.

Legend:
Hot water = assay type: in vivo, mice; conditions: for antinociceptive effect in tail-flick assay: male B6-SJL mice, 10 s cutoff
[1] = Accelerating rotarod performance assay
[2] = Conditioned place preference; conditions: male Sprague Dawley rats, vs vehicle
[3] = test system: human µ-opioid receptor β-arrestin-2; test: MOR-mediated β-arrestin-2 recruitment; assay type: cell-based
human κ-opioid receptor = human κ-opioid receptor (Homo sapiens, UniProt P41145); assay type: cell-based
human µ-opioid receptor = human µ-opioid receptor (Homo sapiens, UniProt P35372); assay type: cell-based
[4] = Cumulative dose-response tail-flick assay and tolerance evaluation; assay type: in vivo, mice; conditions: cumulative dosing, day 9 after daily 10 mg/kg s.c. on days 2–8 (tolerance)

human µ-opioid receptor, sequence (P35372 whole entry): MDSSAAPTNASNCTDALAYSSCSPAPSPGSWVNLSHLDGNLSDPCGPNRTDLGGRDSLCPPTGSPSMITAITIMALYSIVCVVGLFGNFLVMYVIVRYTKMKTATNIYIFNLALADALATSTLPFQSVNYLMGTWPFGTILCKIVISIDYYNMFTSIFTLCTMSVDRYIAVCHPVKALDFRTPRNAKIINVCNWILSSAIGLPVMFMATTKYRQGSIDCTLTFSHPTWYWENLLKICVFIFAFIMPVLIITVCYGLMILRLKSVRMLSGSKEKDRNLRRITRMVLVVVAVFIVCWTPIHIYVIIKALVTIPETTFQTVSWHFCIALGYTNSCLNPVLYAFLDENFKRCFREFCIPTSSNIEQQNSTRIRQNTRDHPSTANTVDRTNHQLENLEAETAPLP
human κ-opioid receptor, sequence (P41145 whole entry): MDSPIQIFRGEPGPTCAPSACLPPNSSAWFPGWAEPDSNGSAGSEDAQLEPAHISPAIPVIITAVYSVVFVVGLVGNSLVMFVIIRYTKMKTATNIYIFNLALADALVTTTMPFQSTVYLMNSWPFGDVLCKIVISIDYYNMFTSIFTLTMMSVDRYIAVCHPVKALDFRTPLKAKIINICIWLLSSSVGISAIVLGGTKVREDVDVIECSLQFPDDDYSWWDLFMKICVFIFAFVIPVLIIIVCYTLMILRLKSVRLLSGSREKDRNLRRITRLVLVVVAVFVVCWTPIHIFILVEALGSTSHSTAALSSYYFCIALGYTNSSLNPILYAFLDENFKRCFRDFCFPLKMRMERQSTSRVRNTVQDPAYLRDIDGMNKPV

COC(=O)[C@@H]1C[C@H](OC(=O)c2ccccc2)C(=O)[C@H]2[C@@]1(C)CC[C@H]1C(=O)O[C@H](c3ccoc3)C[C@]21C [Compound 2, herkinorin, reference compound]
antinociceptive effect in tail-flick assay (Hot water; 1, 5, and 10 mg/kg i.p.): no significant antinociceptive effects | motor coordination on rotarod ([1]; dose not given, data not shown): no observable effect on motor co-ordination | conditioned place preference (CPP score) ([2]; 5 mg/kg): Neither 5 (5 and 10 mg/kg) nor 2 (5 mg/kg) were significantly different to vehicle | EC50 ([3]; read-out: β-arrestin-2 recruitment EC50): > 3000 nM | activity at KORs (in words) (human κ-opioid receptor): partial agonist

CC(=O)O[C@@H]1C[C@H](NC(=O)c2ccccc2)C(=O)[C@H]2[C@@]1(C)CC[C@H]1C(=O)O[C@H](c3ccoc3)C[C@]21C [Compound 3, herkamide, reference compound]
Selectivity κ/µ (human µ-opioid receptor): >3 000

COC(=O)[C@@H]1C[C@@H](OC(=O)c2ccccc2)C(=O)[C@H]2[C@@]1(C)CC[C@H]1C(=O)O[C@H](c3ccoc3)C[C@]21C [Compound 4]
activity at MORs (in words) (human µ-opioid receptor): complete loss of activity | activity at KORs (in words) (human κ-opioid receptor): complete loss of activity

COC(=O)[C@@H]1C=C(OC(=O)c2ccccc2)C(=O)[C@H]2[C@@]1(C)CC[C@H]1C(=O)O[C@H](c3ccoc3)C[C@]21C [Compound 5, (2S,4aR, 6aR,7R,10aR,10bR)-Methyl 9-((benzoyl)oxy)-2-(furan-3-yl)-6a,10b-dimethyl-4,10-dioxo-2,4,4a,5,6,6a,7,10,10a,10b-decahydro-1H-benzo[f]isochromene-7-carboxylate]
time of maximal antinociceptive effects (Hot water; 10 mg/kg i.p.): 30 min | antinociceptive effect in tail-flick assay (Hot water; 5 and 10 mg/kg i.p., vs vehicle): significant antinociceptive effects | antinociceptive effect after naloxone pre-treatment (Hot water; naloxone 10 mg/kg s.c. 45 min pre-treatment): blocked | motor coordination / sedation on rotarod ([1]; 10 mg/kg i.p., 4 to 40 rpm over 300 s): slight sedation only at the 15 min time point | EC50 antinociception day 9 [4]: 7.9 mg/kg | conditioned place preference (CPP score) ([2]; 5 mg/kg and 10 mg/kg i.p.): CPP score similar to the vehicle control; also recorded: Neither 5 (5 and 10 mg/kg) nor 2 (5 mg/kg) were significantly different to vehicle | Emax ([3]; read-out: % Efficacy ± SEM): 96 ± 3% | activity at KORs (in words) (human κ-opioid receptor): no activity

COC(=O)[C@@H]1C=C(O)C(=O)[C@H]2[C@@]1(C)CC[C@H]1C(=O)O[C@H](c3ccoc3)C[C@]21C [Compound 7a, Methyl-(2S,4aR,6aR/S,7R,10aR,10bR)-2-(furan-3-yl)-9-hydroxy-6a,10b-dimethyl-4,10-dioxo-2,4,4a,5,6,6a,7,10,10a,10b-decahydro-1H-;benzo[f]isochromene-7-carboxylate]
activity at KORs (in words) (human κ-opioid receptor): active

COC(=O)[C@@H]1CC(=O)C(O)=C2[C@@]1(C)CC[C@H]1C(=O)O[C@H](c3ccoc3)C[C@]21C [Compound 7b, Methyl-(2S,4aR,6aS,7R,10bS)-2-(furan-3-yl)-10-hydroxy-6a,10b-dimethyl-4,9-dioxo-1,4,4a,5,6,6a,7,8,9,10b-decahydro-2H-benzo[f]isochromene-7-carboxylate]
activity at KORs (in words) (human κ-opioid receptor): completely inactive

CC(=O)O[C@@H]1C=C(OC(=O)c2cccc(F)c2)C(=O)[C@H]2[C@@]1(C)CC[C@H]1C(=O)O[C@H](c3ccoc3)C[C@]21C [Compound 9b]
Selectivity κ/µ (human µ-opioid receptor): >2 000
